According to paper PMC2605960 (Biochemical Journal, 2008):
Where a chain is given by its changes, count along the chain named. Each block holds one compound with its values, some of them ahead of it.

How the values were obtained:
[1] = biological target: T1, FLAG-α1b-adrenoceptor TMI-TMIV (Mesocricetus auratus, UniProt P18841, L166A/L167A/L65A/V66A); test: Sequential 3-colour FRET imaging; type: cell-based; conditions: 10^−7 M, 12 h; transiently transfected HEK-293 cells
T1 sequence (P18841 1-515 L65A/V66A/L166A/L167A) 1: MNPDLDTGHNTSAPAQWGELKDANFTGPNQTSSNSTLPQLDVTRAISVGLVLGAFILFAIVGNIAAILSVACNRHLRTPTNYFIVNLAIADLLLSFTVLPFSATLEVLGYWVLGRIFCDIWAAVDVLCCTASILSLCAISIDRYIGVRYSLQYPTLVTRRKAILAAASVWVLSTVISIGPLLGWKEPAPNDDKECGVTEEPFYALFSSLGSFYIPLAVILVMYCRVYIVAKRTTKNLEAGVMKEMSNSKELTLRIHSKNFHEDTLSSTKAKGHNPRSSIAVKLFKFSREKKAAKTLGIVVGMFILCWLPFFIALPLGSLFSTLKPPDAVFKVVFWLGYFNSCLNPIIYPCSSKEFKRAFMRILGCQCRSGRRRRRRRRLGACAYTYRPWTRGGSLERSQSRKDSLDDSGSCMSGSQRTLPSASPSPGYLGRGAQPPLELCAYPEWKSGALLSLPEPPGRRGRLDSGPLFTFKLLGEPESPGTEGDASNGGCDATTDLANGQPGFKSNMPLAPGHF
T1 sequence (P18841 1-515 L65A/V66A/L166A/L167A) 2: T1 sequence (P18841 1-515 L65A/V66A/L166A/L167A) 1
T1 sequence (P18841 1-515 L65A/V66A/L166A/L167A) 3: T1 sequence (P18841 1-515 L65A/V66A/L166A/L167A) 1

[2] = biological target: T2, FLAG-α1b-adrenoceptor TMI-TMIV-eYFP (Mesocricetus auratus, UniProt P18841, L166A/L167A/L65A/V66A); test: Intact cell anti-FLAG ELISA of cell surface receptor; type: cell-based; conditions: for cell surface delivery of mutant receptor (anti-FLAG ELISA): 10^−5 M of each drug
T2 sequence (P18841 1-515 L65A/V66A/L166A/L167A): T1 sequence (P18841 1-515 L65A/V66A/L166A/L167A) 1

[3] = biological target: T2, FLAG-α1b-adrenoceptor TMI-TMIV-eYFP; type: cell-based; conditions: pre-treated with 10^−7 M overnight, then extensively washed; 0.4 nM [3H]prazosin
[4] = biological target: T2, FLAG-α1b-adrenoceptor TMI-TMIV-eYFP; conditions: pKi, [3H]prazosin competition binding
[5] = biological target: T3, FLAG-α1b-adrenoceptor-eYFP (Mesocricetus auratus, UniProt P18841); type: binding
T3 sequence (P18841 1-515): T1 sequence (P18841 1-515 L65A/V66A/L166A/L167A) 1 with A65L, A66V, A166L, A167L

- sequential FRET signal (eCFP to dsRed2 FRET) [1]: increased
- cell surface delivery of mutant receptor (anti-FLAG ELISA) ([2]; overnight treatment): most effective ligand tested
- concentration of maximum effect on cell surface mutant receptor ([2]; overnight treatment): 10^−7 M
- incubation time for maximum effect on cell surface mutant receptor ([2]; results not shown): 14 to 16 h
Compound: COc1cc2nc(N3CCN(C(=O)c4ccco4)CC3)nc(N)c2cc1OC [prazosin]
- cell surface mutant receptor by intact cell [3H]prazosin binding [3]: marked increases of cell surface FLAG-α1b-adrenoceptor TMI-TMIV-eYFP

Compound: Cc1nc2sccn2c(=O)c1CCN1CCC(=C(c2ccc(F)cc2)c2ccc(F)cc2)CC1 [ritanserin]
- cell surface delivery of mutant receptor (anti-FLAG ELISA) ([2]; overnight treatment): only ketanserin caused significant cell surface delivery

- cell surface delivery of mutant receptor (anti-FLAG ELISA) ([2]; overnight treatment): significant cell surface delivery
Compound: O=C(c1ccc(F)cc1)C1CCN(CCn2c(=O)[nH]c3ccccc3c2=O)CC1 [ketanserin]

- Ki [4]: 63.1 nM
- Ki [5]: 501 nM
Compound: CNC[C@H](O)c1ccc(O)c(O)c1 [adrenaline]
